Measured values as given in ChEMBL document CHEMBL1201862, “PubChem BioAssay data set” (2004).
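Cultured in 96-well plates, cells were exposed to test compound for 48 hours across five concentrations. The concentration for 50% growth inhibition is given as GI50.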 Active and inactive are the calls of the source. No stated cut-off is given here; in the data, active = GI50 up to about 1.1 µM and inactive = higher.

Assays:
Assay in all cases: NCI-60 cell line screen, 48 h
A549 = system: A549
COLO 205 = system: COLO 205
EKVX = system: EKVX
HCC 2998 = system: HCC 2998
HOP-92 = system: HOP-92
HT-29 = system: HT-29
Hs-578T = system: Hs-578T
MDA-MB-231 = system: MDA-MB-231
NCI-H226 = system: NCI-H226
NCI-H460 = system: NCI-H460
NCI-H522 = system: NCI-H522
NCI/ADR-RES = system: NCI/ADR-RES
OVCAR-8 = system: OVCAR-8
SF-295 = system: SF-295
SF-539 = system: SF-539
SK-MEL-5 = system: SK-MEL-5
SR = system: SR
SW-620 = system: SW-620
UACC-257 = system: UACC-257

Row | SMILES | GI50 (A549) | GI50 (COLO 205) | GI50 (EKVX) | GI50 (HCC 2998) | GI50 (HOP-92) | GI50 (HT-29) | GI50 (Hs-578T) | GI50 (MDA-MB-231) | GI50 (NCI-H226) | GI50 (NCI-H460) | GI50 (NCI-H522) | GI50 (NCI/ADR-RES) | GI50 (OVCAR-8) | GI50 (SF-295) | GI50 (SF-539) | GI50 (SK-MEL-5) | GI50 (SR) | GI50 (SW-620) | GI50 (UACC-257)
1 | O=[N+]([O-])c1nccn1CCCNc1ccnc2cc(Cl)ccc12 | 5.43 µM (inactive) | 3.05 µM (inactive) | 1.93 µM (inactive) | 18.2 µM (inactive) | > 7.98 µM (inactive) | 3.94 µM (inactive) | > 100 µM (inactive) | 6.59 µM (inactive) | 3.27 µM (inactive) | 3.12 µM (inactive) | 2.25 µM (inactive) | > 96.6 µM (inactive) | 7.4 µM (inactive) | 3.8 µM (inactive) | 5.48 µM (inactive) | 2.29 µM (inactive) | 2.81 µM (inactive) | 4.23 µM (inactive) | 3.44 µM (inactive)
2 | Nc1c2c(nc3cc(F)c(F)cc13)CCC2 | 42.2 µM (inactive) | 43.5 µM (inactive) | 52.1 µM (inactive) | 14.5 µM (inactive) | 38.3 µM (inactive) | 31.8 µM (inactive) | > 100 µM (inactive) | 56.1 µM (inactive) | 33.3 µM (inactive) | 22.1 µM (inactive) | 72.8 µM (inactive) | 60.1 µM (inactive) | 44.5 µM (inactive) | 41.2 µM (inactive) | 46 µM (inactive) | 42.7 µM (inactive) | 24.2 µM (inactive) | 29.2 µM (inactive) | 44.4 µM (inactive)
3 | CCc1nc2c(c(N(C)C)c1C(=O)OC)CCc1ccccc1-2 | 31 µM (inactive) | 18.7 µM (inactive) | 25.9 µM (inactive) | 24.6 µM (inactive) | 65.2 µM (inactive) | 27.7 µM (inactive) | 51.1 µM (inactive) | 23.5 µM (inactive) | 21.5 µM (inactive) | 30.6 µM (inactive) | 17.9 µM (inactive) | 29.6 µM (inactive) | 34.1 µM (inactive) | 17.6 µM (inactive) | 39.4 µM (inactive) | 17 µM (inactive) | 11.4 µM (inactive) | 32.8 µM (inactive) | 26.1 µM (inactive)
4 | O=S(=O)(Oc1ccc2ccccc2c1-c1c(OS(=O)(=O)C(F)(F)F)ccc2ccccc12)C(F)(F)F | 35 µM (inactive) | > 100 µM (inactive) | 66.4 µM (inactive) | 31 µM (inactive) | 12.5 µM (inactive) | 41.9 µM (inactive) | > 100 µM (inactive) | 42.7 µM (inactive) | 79.1 µM (inactive) | 20 µM (inactive) | 37.7 µM (inactive) | 84.5 µM (inactive) | > 100 µM (inactive) | > 100 µM (inactive) | > 100 µM (inactive) | 7.01 µM (inactive) | 7.67 µM (inactive) | > 100 µM (inactive) | 1.32 µM (inactive)
5 | CC1CNC(c2cccc(-c3nc(-c4cccc(C5=NC(C)CN5)c4)nc(N(C)C)n3)c2)=N1 (stereo not drawn) | 2.69 µM (inactive) | 1.2 µM (inactive) | 2.23 µM (inactive) | 1.13 µM (inactive) | 3.87 µM (inactive) | 0.895 µM (active) | 2.74 µM (inactive) | 1.32 µM (inactive) | 1.9 µM (inactive) | 1.94 µM (inactive) | 0.757 µM (active) | 16.5 µM (inactive) | 2.15 µM (inactive) | 3.61 µM (inactive) | 0.454 µM (active) | 2.59 µM (inactive) | 0.45 µM (active) | 0.721 µM (active) | 3.16 µM (inactive)
6 | O=[N+]([O-])c1ccc(Sc2c3ccccc3nc3ccccc23)cn1 | > 100 µM (inactive) | 3.36 µM (inactive) | > 57.4 µM (inactive) | 45.6 µM (inactive) | 4.28 µM (inactive) | 9.02 µM (inactive) | 18 µM (inactive) | 18 µM (inactive) | > 100 µM (inactive) | > 72.9 µM (inactive) | 4.08 µM (inactive) | 39.5 µM (inactive) | 15.3 µM (inactive) | > 100 µM (inactive) | 8.77 µM (inactive) | 35.1 µM (inactive) | 3.12 µM (inactive) | 3.88 µM (inactive) | 15.5 µM (inactive)
7 | Cc1nc2ccccc2n1CCc1nc2ccccc2[nH]1 | > 100 µM (inactive) | > 100 µM (inactive) | > 100 µM (inactive) | > 100 µM (inactive) | > 100 µM (inactive) | > 100 µM (inactive) | > 100 µM (inactive) | > 100 µM (inactive) | 31.6 µM (inactive) | > 100 µM (inactive) | > 100 µM (inactive) | > 100 µM (inactive) | > 100 µM (inactive) | > 100 µM (inactive) | > 100 µM (inactive) | > 100 µM (inactive) | > 100 µM (inactive) | > 100 µM (inactive) | > 100 µM (inactive)
